Test results published in paper PMC9305623, “Next generation GLP-1/GIP/glucagon triple agonists normalize body weight in obese mice” (Molecular Metabolism, 2022).
pEC50: −log10 of the molar value. *1 amine or outer side, *2 acyl side, *3 side chain or, on linkers, in order; H or OH if unused. Where a SMILES comes first, the peptide text is derived from it. Side-chain parts run from the residue outwards. [ ]: non-standard residue; d: D form. The star is where a group is joined. C20 diacid = O=C(O)CCCCCCCCCCCCCCCCCCC(=O)*; γGlu = O=C(O)[C@H](CCC(=O)[*:2])N[*:1]; εLys = N[C@@H](CCCCN[*:1])C(=O)[*:2]; AEEA = NCCOCCOCC(=O)O; Aib = CC(C)(N)C(=O)O

Assays:
Experiment in all cases: Receptor activation: cAMP production by CRE-luciferase reporter in stably transfected BHK cells
Type in all cases: cell-based
hGIP Receptor = biological target: T1, hGIP Receptor (Homo sapiens, UniProt P48546); conditions: for hGIP Receptor Relative Potency %: compared to the native ligand for the receptor
T1 construct: expressed in transfected cells; host or cells: baby hamster kidney (BHK) cells, stably transfected, with CRE-firefly luciferase reporter
T1 sequence (P48546 22-466): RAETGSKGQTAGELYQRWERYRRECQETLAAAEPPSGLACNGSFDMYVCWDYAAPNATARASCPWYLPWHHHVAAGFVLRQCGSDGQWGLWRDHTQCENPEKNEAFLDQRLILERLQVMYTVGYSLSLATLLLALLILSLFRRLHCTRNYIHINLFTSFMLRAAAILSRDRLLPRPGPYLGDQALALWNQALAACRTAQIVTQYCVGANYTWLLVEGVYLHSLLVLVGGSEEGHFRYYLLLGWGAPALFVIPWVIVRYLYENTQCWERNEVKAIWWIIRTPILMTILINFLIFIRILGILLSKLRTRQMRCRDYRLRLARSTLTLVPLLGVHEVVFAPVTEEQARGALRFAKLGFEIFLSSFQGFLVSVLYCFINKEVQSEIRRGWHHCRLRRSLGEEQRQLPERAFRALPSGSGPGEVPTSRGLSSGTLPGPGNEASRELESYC
Procedure: (§1) Cyclic AMP (cAMP) production was assessed as a proxy for receptor activation using stably transfected baby hamster kidney (BHK) cell lines expressing the DNA for one individual receptor (GLP-1R, GIPR, GcgR; human- or mouse-specific sequence) and the DNA for the firefly luciferase reporter gene linked to the cAMP response element (CRE). The cells were kept in continuous culture at 37 °C and 5% CO2 in Dulbecco's Modified Eagle Medium (DMEM) supplemented with 10% heat-inactivated fetal bovine serum (HI-FBS), 300 μg/mL hygromycin, and 500 μg/mL G418; for cell lines expressing GIPR, the G418 concentration was lowered to 400 μg/mL. Cells were plated in a 96-well poly-D-lysine-coated plate at 5,000 cells per well in growth media and incubated overnight at 37 °C with 5% CO2. After the overnight incubation, the media was removed, the plate was washed once in Dulbecco's phosphase-buffered saline (DPBS), and 50 μL of assay buffer (DMEM without phenol red, 10 mM HEPES, 1x Glutamax, 1% ovalbumin, 0.1% Pluronic F-68) was added to each well. […] Aliquots of the dilution curves were added to the cell plate in a volume of 50 μL per well resulting in final assay concentrations ranging from 1 × 10^−14 to 1 × 10^−7 M. The assay plate was incubated for 3 h at 37 °C and 5% CO2. After the incubation, the assay plate was washed once with DPBS. A 100 μL aliquot of DPBS was added to each well followed by 100 μL of steadylite plus reagent (PerkinElmer). The assay plate was covered to protect reagent from light, shaken at 250 rpm at room temperature for 30 min, and read in a microtiter plate reader. EC50 values were calculated using Prism software (GraphPad) with the nonlinear regression log(agonist) vs. response. A minimum of two replicates were measured for each sample.

hGLP-1 Receptor = biological target: T2, hGLP-1 Receptor (Homo sapiens, UniProt P43220); conditions: for hGLP-1 Receptor Relative Potency %: compared to the native ligand for the receptor
T2 construct: expressed in transfected cells; host or cells: baby hamster kidney (BHK) cells, stably transfected, with CRE-firefly luciferase reporter
Procedure: as §1

hGcg Receptor = biological target: T3, hGcg Receptor (Homo sapiens, UniProt P47871); conditions: for hGcg Receptor Relative Potency %: compared to the native ligand for the receptor
T3 construct: expressed in transfected cells; host or cells: baby hamster kidney (BHK) cells, stably transfected, with CRE-firefly luciferase reporter
Procedure: as §1

T2 sequence (P43220 24-463): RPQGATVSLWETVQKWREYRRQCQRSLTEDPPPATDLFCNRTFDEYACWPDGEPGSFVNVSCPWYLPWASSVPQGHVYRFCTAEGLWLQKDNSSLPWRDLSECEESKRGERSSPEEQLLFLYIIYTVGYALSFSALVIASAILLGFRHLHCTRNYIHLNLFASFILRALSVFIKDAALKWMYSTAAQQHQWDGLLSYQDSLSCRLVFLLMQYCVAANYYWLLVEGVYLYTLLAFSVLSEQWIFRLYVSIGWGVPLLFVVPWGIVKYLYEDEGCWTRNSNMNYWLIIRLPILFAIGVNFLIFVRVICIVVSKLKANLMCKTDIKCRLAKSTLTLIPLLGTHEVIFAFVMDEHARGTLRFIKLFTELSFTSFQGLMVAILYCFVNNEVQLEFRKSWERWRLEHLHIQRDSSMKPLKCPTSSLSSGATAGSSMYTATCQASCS
T3 sequence (P47871 26-477): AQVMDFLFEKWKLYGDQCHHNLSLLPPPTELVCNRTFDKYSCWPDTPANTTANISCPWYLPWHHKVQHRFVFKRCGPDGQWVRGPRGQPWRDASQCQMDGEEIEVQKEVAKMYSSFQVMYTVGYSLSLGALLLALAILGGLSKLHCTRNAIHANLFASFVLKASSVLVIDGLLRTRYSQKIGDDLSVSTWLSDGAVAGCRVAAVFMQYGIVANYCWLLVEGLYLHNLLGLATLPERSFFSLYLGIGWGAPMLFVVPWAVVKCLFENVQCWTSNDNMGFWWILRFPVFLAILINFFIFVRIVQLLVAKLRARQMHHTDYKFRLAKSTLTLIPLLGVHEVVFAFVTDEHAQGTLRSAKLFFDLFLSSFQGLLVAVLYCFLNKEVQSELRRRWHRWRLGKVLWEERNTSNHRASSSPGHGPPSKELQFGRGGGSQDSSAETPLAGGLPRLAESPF

SMILES	hGIP Receptor Relative Potency % (hGIP Receptor)	hGLP-1 Receptor Relative Potency % (hGLP-1 Receptor)	hGcg Receptor Relative Potency % (hGcg Receptor)	pEC50 (hGIP Receptor; BHK cells expressing human GIPR and CRE-luciferase, 12-point curve, 3 h, 37 °C, assay buffer with 1% ovalbumin, minimum of two replicates)	pEC50 (hGLP-1 Receptor; BHK cells expressing human GLP-1R and CRE-luciferase, 12-point curve, 3 h, 37 °C, assay buffer with 1% ovalbumin, minimum of two replicates)	pEC50 (hGcg Receptor; BHK cells expressing human GcgR and CRE-luciferase, 12-point curve, 3 h, 37 °C, assay buffer with 1% ovalbumin, minimum of two replicates)
CC[C@H](C)[C@H](NC(=O)[C@H](CO)NC(=O)[C@H](Cc1ccc(O)cc1)NC(=O)[C@H](CC(=O)O)NC(=O)[C@H](CO)NC(=O)[C@@H](NC(=O)[C@H](Cc1ccccc1)NC(=O)[C@@H](NC(=O)CNC(=O)[C@H](Cc1c[nH]cn1)NC(=O)C(C)(C)NC(=O)[C@@H](N)Cc1c[nH]cn1)[C@@H](C)O)[C@@H](C)O)C(=O)N[C@@H](Cc1ccc(O)cc1)C(=O)N[C@@H](CC(C)C)C(=O)N[C@@H](CCC(=O)O)C(=O)N[C@@H](CCCCNC(=O)[C@@H](N)CCCCNC(=O)[C@@H](N)CCCCNC(=O)CC[C@H](NC(=O)CCCCCCCCCCCCCCCCCCC(=O)O)C(=O)O)C(=O)N[C@@H](CCC(N)=O)C(=O)N[C@@H](C)C(=O)N[C@@H](C)C(=O)NC(C)(C)C(=O)N[C@@H](CCC(=O)O)C(=O)N[C@@H](Cc1ccccc1)C(=O)N[C@H](C(=O)N[C@@H](CCC(N)=O)C(=O)N[C@@H](Cc1c[nH]c2ccccc12)C(=O)N[C@@H](CC(C)C)C(=O)N[C@@H](CC(C)C)C(=O)N[C@@H](CCC(=O)O)C(=O)NCC(=O)NCC(=O)N1CCC[C@H]1C(=O)N[C@@H](CO)C(=O)N[C@@H](CO)C(=O)NCC(=O)N[C@@H](C)C(=O)N1CCC[C@H]1C(=O)N1CCC[C@H]1C(=O)N1CCC[C@H]1C(=O)N[C@@H](CO)C(N)=O)C(C)C [Compound 13] (H-H[Aib]HGTFTSDYSIYLEK([εLys-εLys-γGlu-C20 diacid])QAA[Aib]EFVQWLLEGGPSSGAPPPS-NH2)	146%	340%	19%	–	–	–
CC[C@H](C)[C@H](NC(=O)[C@H](CO)NC(=O)[C@H](Cc1ccc(O)cc1)NC(=O)[C@H](CC(=O)O)NC(=O)[C@H](CO)NC(=O)[C@@H](NC(=O)[C@H](Cc1ccccc1)NC(=O)[C@@H](NC(=O)CNC(=O)[C@H](Cc1c[nH]cn1)NC(=O)C(C)(C)NC(=O)[C@@H](N)Cc1c[nH]cn1)[C@@H](C)O)[C@@H](C)O)C(=O)N[C@@H](Cc1ccc(O)cc1)C(=O)N[C@@H](CC(C)C)C(=O)N[C@@H](CCC(=O)O)C(=O)N[C@@H](CCCCNC(=O)[C@@H](N)CCCCNC(=O)[C@@H](N)CCCCNC(=O)CC[C@H](NC(=O)CCCCCCCCCCCCCCCCCCC(=O)O)C(=O)O)C(=O)N[C@@H](CCCCN)C(=O)N[C@@H](C)C(=O)N[C@@H](C)C(=O)NC(C)(C)C(=O)N[C@@H](CCC(=O)O)C(=O)N[C@@H](Cc1ccccc1)C(=O)N[C@H](C(=O)N[C@@H](CCC(N)=O)C(=O)N[C@@H](Cc1c[nH]c2ccccc12)C(=O)N[C@@H](CC(C)C)C(=O)N[C@@H](CC(C)C)C(=O)N[C@@H](CCC(=O)O)C(=O)NCC(=O)NCC(=O)N1CCC[C@H]1C(=O)N[C@@H](CO)C(=O)N[C@@H](CO)C(=O)NCC(=O)N[C@@H](C)C(=O)N1CCC[C@H]1C(=O)N1CCC[C@H]1C(=O)N1CCC[C@H]1C(=O)N[C@@H](CO)C(N)=O)C(C)C [Compound 14] (H-H[Aib]HGTFTSDYSIYLEK([εLys-εLys-γGlu-C20 diacid])KAA[Aib]EFVQWLLEGGPSSGAPPPS-NH2)	142%	211%	69%	–	–	–
CC[C@H](C)[C@H](NC(=O)[C@H](CO)NC(=O)[C@H](Cc1ccc(O)cc1)NC(=O)[C@H](CC(=O)O)NC(=O)[C@H](CO)NC(=O)[C@@H](NC(=O)[C@H](Cc1ccccc1)NC(=O)[C@@H](NC(=O)CNC(=O)[C@H](CCC(N)=O)NC(=O)C(C)(C)NC(=O)[C@@H](N)Cc1ccc(O)cc1)[C@@H](C)O)[C@@H](C)O)C(=O)N[C@@H](Cc1ccc(O)cc1)C(=O)N[C@@H](CC(C)C)C(=O)N[C@@H](CCC(=O)O)C(=O)N[C@@H](CCCCNC(=O)[C@@H](N)CCCCNC(=O)[C@@H](N)CCCCNC(=O)CC[C@H](NC(=O)CCCCCCCCCCCCCCCCCCC(=O)O)C(=O)O)C(=O)N[C@@H](CCC(N)=O)C(=O)N[C@@H](C)C(=O)N[C@@H](C)C(=O)NC(C)(C)C(=O)N[C@@H](CCC(=O)O)C(=O)N[C@@H](Cc1ccccc1)C(=O)N[C@H](C(=O)N[C@@H](CCC(N)=O)C(=O)N[C@@H](Cc1c[nH]c2ccccc12)C(=O)N[C@@H](CC(C)C)C(=O)N[C@@H](CC(C)C)C(=O)N[C@@H](CCC(=O)O)C(=O)NCC(=O)NCC(=O)N1CCC[C@H]1C(=O)N[C@@H](CO)C(=O)N[C@@H](CO)C(=O)NCC(=O)N[C@@H](C)C(=O)N1CCC[C@H]1C(=O)N1CCC[C@H]1C(=O)N1CCC[C@H]1C(=O)N[C@@H](CO)C(N)=O)C(C)C [Compound 10] (H-Y[Aib]QGTFTSDYSIYLEK([εLys-εLys-γGlu-C20 diacid])QAA[Aib]EFVQWLLEGGPSSGAPPPS-NH2)	150%	244%	11%	–	–	–
CC[C@H](C)[C@H](NC(=O)[C@H](CO)NC(=O)[C@H](Cc1ccc(O)cc1)NC(=O)[C@H](CC(=O)O)NC(=O)[C@H](CO)NC(=O)[C@@H](NC(=O)[C@H](Cc1ccccc1)NC(=O)[C@@H](NC(=O)CNC(=O)[C@H](CCC(N)=O)NC(=O)C(C)(C)NC(=O)[C@@H](N)Cc1ccc(O)cc1)[C@@H](C)O)[C@@H](C)O)C(=O)N[C@@H](Cc1ccc(O)cc1)C(=O)N[C@@H](CC(C)C)C(=O)N[C@@H](CCC(=O)O)C(=O)N[C@@H](CCCCNC(=O)COCCOCCNC(=O)COCCOCCNC(=O)CC[C@H](NC(=O)CCCCCCCCCCCCCCCCCCC(=O)O)C(=O)O)C(=O)N[C@@H](CCC(N)=O)C(=O)N[C@@H](C)C(=O)N[C@@H](C)C(=O)NC(C)(C)C(=O)N[C@@H](CCC(=O)O)C(=O)N[C@@H](Cc1ccccc1)C(=O)N[C@H](C(=O)N[C@@H](CCC(N)=O)C(=O)N[C@@H](Cc1c[nH]c2ccccc12)C(=O)N[C@@H](CC(C)C)C(=O)N[C@@H](CC(C)C)C(=O)N[C@@H](CCC(=O)O)C(=O)NCC(=O)NCC(=O)N1CCC[C@H]1C(=O)N[C@@H](CO)C(=O)N[C@@H](CO)C(=O)NCC(=O)N[C@@H](C)C(=O)N1CCC[C@H]1C(=O)N1CCC[C@H]1C(=O)N1CCC[C@H]1C(=O)N[C@@H](CO)C(N)=O)C(C)C [Compound 9] (H-Y[Aib]QGTFTSDYSIYLEK([AEEA-AEEA-γGlu-C20 diacid])QAA[Aib]EFVQWLLEGGPSSGAPPPS-NH2)	92%	220%	5%	10.94	11.51	9.73
CC[C@H](C)[C@H](NC(=O)[C@H](CO)NC(=O)[C@H](Cc1ccc(O)cc1)NC(=O)[C@H](CC(=O)O)NC(=O)[C@H](CO)NC(=O)[C@@H](NC(=O)[C@H](Cc1ccccc1)NC(=O)[C@@H](NC(=O)CNC(=O)[C@H](CCC(N)=O)NC(=O)C(C)(C)NC(=O)[C@@H](N)Cc1ccc(O)cc1)[C@@H](C)O)[C@@H](C)O)C(=O)N[C@@H](Cc1ccc(O)cc1)C(=O)N[C@@H](CC(C)C)C(=O)N[C@@H](CC(=O)O)C(=O)N[C@@H](CCCCN)C(=O)N[C@@H](CCC(N)=O)C(=O)N[C@@H](C)C(=O)N[C@@H](C)C(=O)NC(C)(C)C(=O)N[C@@H](CCC(=O)O)C(=O)N[C@@H](Cc1ccccc1)C(=O)N[C@H](C(=O)N[C@@H](CC(N)=O)C(=O)N[C@@H](Cc1c[nH]c2ccccc12)C(=O)N[C@@H](CC(C)C)C(=O)N[C@@H](CC(C)C)C(=O)N[C@@H](C)C(=O)NCC(=O)NCC(=O)N1CCC[C@H]1C(=O)N[C@@H](CO)C(=O)N[C@@H](CO)C(=O)NCC(=O)N[C@@H](C)C(=O)N1CCC[C@H]1C(=O)N1CCC[C@H]1C(=O)N1CCC[C@H]1C(=O)N[C@@H](CO)C(=O)N[C@@H](CCCCNC(=O)COCCOCCNC(=O)COCCOCCNC(=O)CC[C@H](NC(=O)CCCCCCCCCCCCCCCCC(=O)O)C(=O)O)C(N)=O)C(C)C [Compound 6]	23%	59%	1%	–	–	–
